Test results from US8673289B2, “Attenuated uracil auxotroph of an apicomplexan and use thereof” (priority 2007, dated 2014).

Columns and labels:
wild-type T. gondii = experiment: labeling of parasites with [3H]pyrimidines (pyrimidine salvage); assay type: cell-based, Toxoplasma gondii; conditions: parasites grown in host cells
Experimental: (§1) Initial experiments primarily involved an enzymatic analysis of drug resistant mutants and the incorporation of various pyrimidine analogs into T. gondii RNA and DNA as an indication of pyrimidine salvage when parasites were grown in either normal host or mutant host cells. All biochemical communications between the parasite and host cells cross the vacuolar membrane which is now known to contain “pores” that permit the passage of nucleobases ranging in molecular mass from 112 daltons up to 244 daltons. The size of the pores is estimated to be approximately 1500 daltons. A T. gondii mutant resistant to 5-fluorodeoxyuridine (FUDR-1) had lost uracil phosphoribosyltransferase (UPRT), an enzyme which is absent in normal host cells (Pfefferkorn (1978) Expt. Parasitol. 44:26-35). […] FUDR-1 mutant parasites were not labeled with [^3H]deoxyuridine. […] FUDR-1 mutant parasites were not labeled with [^3H]uridine. […] FUDR-1 (UPRT knock-out) parasites were not labeled with [^3H]uracil.
Similarly, since uracil only labels the parasite, due to the parasite UPRT, which is absent in the host, the pyrimidine pools of the parasite are also unavailable to the host. Thus, there is no detectable pyrimidine traffic detected between the parasite and host.

cps1 and cps2 mutants = experiment: pyrimidine dependence of cps1 and cps2 replication and plaque formation; assay type: cell-based, Toxoplasma gondii; conditions: for rescue of growth rate / replication of cps1 and cps2: relatively low (thymine, thymidine: moderate) concentrations in medium; for rescue of replication of cps1 and cps2: very high concentrations
From the text: However, all of these mutants are somewhat “leaky” in that there was not an absolute growth (replication) dependence on uracil addition to the growth medium for replication. Each of these mutants grows at a moderate (½ of normal) growth rate for the first 2 days following infection of a host cell producing vacuoles that contained 16 to 32 parasites by 3 days post infection. In contrast, RH parasites are lysed out of their primary vacuoles at this time (3 days, >64 parasites). However, the cps mutants slow after 3 days and many parasites never (about ⅓) break out of their primary vacuole. If the primary vacuole breaks, a few parasites can be detected at the site of infection but the infection site always involves a small zone of infection that never forms a visible plaque in a standard 7 day plaque assay. To quantitate growth of these mutants, HFF flasks were inoculated with […] or cps2 parasites (about a multiplicity of infection (MOI) of 1 parasite per 20 HFF cells). After 2 hours of attachment and invasion (all of these mutants have normal attachment and invasion phenotypes as scored by counting percent entered parasites into host cells as a function of time post-inoculation), different concentrations of different pyrimidine compound was added to parallel infected HFF flasks. As a function of time post pyrimidine addition (t=0 hour) the number of parasites per vacuole was scored for 50 vacuoles as described by Fox et al. ((1999) supra). The number of parasite doublings was calculated based on 1 parasite entering each primary vacuole. Thus, 1 doubling=2 parasites per vacuole, 3 doublings=8 parasites per vacuole, and 5 doublings=32 parasites per vacuole. The pyrimidine dependence of cps1 and cps2 replication (doublings of parasites in the vacuole) was plotted graphically. […] The response to thymine and thymidine was additionally informative about the cause of the growth defect in cps1 and cps2. […] This is believed to be caused by the putative defect in the cps1 and cps2 mutants which is a reduced “pool” size of UMP. If UMP pools (ultimately used for RNA and DNA synthesis) are lowered it follows that a resulting decrease in TMP pools is expected since UMP is the precursor of TMP in T. gondii and all other apicomplexan parasites which normally lack TK activity. However, since cps1 and cps2 now express a TK activity carried into the parasite by the p53KOX3-1R plasmid, exemplified by sensitivity of these mutants to ganciclovir (specific to HSV TK), feeding parasites either thymine or thymidine is expected to increase TMP pools. Thus, it appears that moderate levels of thymine or thymidine partially rescue growth of cps1 and cps2 by restoring TMP pools. […] Since the parasite has no mechanism to convert TMP back to UMP there is still a defect in the UMP pool in cps1 and cps2 even with added thymine or thymidine and rescue is never complete. The ability of cps1 and cps2 mutants to form plaques on HFF monolayers in the standard 7 day assay paralleled the pyrimidine dependence of parasite replication in vacuoles.
The cps1 and cps2 mutants were inoculated intraperitoneally (i.p.) into balb/c mice to measure parasite virulence compared to virulent RH parasites. Both mutant cps1 and cps2 had equal virulence as RH parasites in balb/c mice (Jackson Labs), killing all mice within 10 days of i.p. inoculation (group size was four mice per parasite strain). Only 100 parasites (˜50 PFU) of each parasite strain was needed to kill all mice in each group. This pattern of virulence can be understood by re-examining the pyrimidine dependence of cps1 and cps2 growth. Uridine is believed to be the pyrimidine responsible for virulence of cps1 and cps2 in mice. Only 5 μM uridine completely rescues normal plaque size of cps1 and cps2 in vitro. Plasma concentrations of uridine in mice are approximately 5 to 10 μM.

FUDR-1 mutant parasites = experiment: labeling of FUDR-1 (UPRT knock-out) parasites with [3H]pyrimidines; assay type: cell-based, Toxoplasma gondii
Experimental: as §1

cps1-1 and cps2-1 [1] = experiment: pyrimidine rescue of cps1-1 and cps2-1 replication and plaque formation; assay type: cell-based, Toxoplasma gondii; conditions: for rescue of replication (doublings) of cps1-1 and cps2-1: 36-hour replication assay, HFF; for rescue of plaque formation of cps1-1 and cps2-1: plaque assay
Experimental: No pyrimidine compound at less than 25 μM could rescue plaque formation of cps1-1 or cps2-1. […] Uridine was quite poor at rescue of plaque formation in cps1-1 and cps2-1.
A more detailed growth response to pyrimidine, measured as parasite replications (doublings) was performed for cps1-1 and cps2-1 and compared to the results previously obtained for […]. […] Uridine rescue was poor, with a slow restoration of growth at very high amounts, >400 μM. Deoxyuridine rescue was significant, but again, full growth rate was not restored at any concentration of deoxyuridine. Rescue with uracil was robust, but only in a limited range of concentration. Full restoration of growth rate in cps1-1 and cps2-1 was possible only with uracil added between 200 and 400 μM. […] This phenotype can only be observed in T. gondii pyrimidine auxotroph mutants, not in wild-type parasites with intact de novo pyrimidine synthesis pathways.
The pyrimidine growth dependence of mutant cps1-1 on the pyrimidine salvage pathway was further documented in thymidine interference experiments. Mutant cps1-1 plaques well in 250 μM uracil or deoxyuridine, but not in 1000 μM thymidine. Since thymidine at 1000 μM is known to inhibit approximately 90% of the parasite nucleoside phosphorylase activity specific for cleavage of deoxyuridine (Iltzsch, (1993) J. Euk. Micro. 40:24-28), growth of cps1-1 was tested in combinations of 1000 μM thymidine and 250 μM uracil or 250 μM deoxyuridine. All pyrimidine salvage in T. gondii must pass through uracil and UPRT conversion of uracil to UMP. In contrast, thymidine has no effect on UPRT activity. Thus, if growth of cps1-1 were dependent on deoxyuridine supplementation then replication in this condition may be inhibited by co-supplementing with 1000 μM thymidine. […] Thus, when cps1-1 is grown in deoxyuridine the parasite strictly requires nucleoside phosphorylase activity to cleave deoxyuridine for growth. […] Thus, cps1-1 and cps2-1 rely strictly on pyrimidine salvage enzymes for growth and further, the HFF host cell in vitro cannot supply sufficient pyrimidines for growth of cps1-1 or cps2-1. […] Such potential inhibitors can only be identified using a pyrimidine auxotroph such as provided in the instant invention.
To assess reversion, 10^6 to 10^7 cps1-1 or cps2-1 parasites were periodically inoculated into HFF flasks supplemented with 5 μM uridine. This concentration of uridine is sufficient to rescue the parent strains (cps1 and cps2) of cps1-1 and cps2-1.

[2] = test system: parasite nucleoside phosphorylase activity specific for cleavage of deoxyuridine; conditions: thymidine at 1000 μM; cited from earlier work
cps1-1 and cps2-1 [3] = experiment: drug sensitivity of cps1-1 and cps2-1 in replication and plaque assays; assay type: cell-based, Toxoplasma gondii; conditions: 10 μM
From the text: It is believed that the single recombination into the CPSII locus only partially disrupted expression of CPSII activity in cps1 and cps2. […] Cps1 and cps2 were thus utilized as the parent strain background in which to select a more highly attenuated pyrimidine auxotroph mutant. Both the cps1 and cps2 mutants express a TK allele which was inserted into the CPSII locus. […] Then, approximately 1-2×10^5 cps1 or cps2 parasites was inoculated into a 25 cm^2 HFF flask and selected negatively in the presence of 10 μM ganciclovir plus 200 μM uracil. This is 20 times the dose of ganciclovir necessary to completely block plaque formation of these mutants. […] The parasites which were growing in ganciclovir plus uracil were subcloned in ganciclovir and uracil (same conditions) and individual clones, cps1-1 and cps2-1, were identified from each parent, respectively, for further analysis. The cps1-1 and cps2-1 subclones were first tested for their sensitivity to pyrimethamine. The theory of negative selective in only ganciclovir is that a mutant that disrupts expression of the TK allele should simultaneously acquire sensitivity to pyrimethamine due to loss of the expression of the fused trifunctional DHFR-TK-TS transgene(s) inserted into the CPSII locus of cps1 and cps2.

[4] = test system: T. gondii carrying a single allele of TK from pDHFRm2m3-TK-TS; experiment: plaque formation in ganciclovir, TK-transfected parasites; assay type: cell-based, Toxoplasma gondii
From the text: A modified hit and run mutagenesis was devised for knocking out the T. gondii gene encoding CPSII. First, a new plasmid vector was developed for positive and negative selection analogous to the plasmid described by Fox, et al. ((1999) Mol. Biochem. Parasitol. 98:93-103), except using the herpes simplex virus type I thymidine kinase (TK) gene instead of bacterial cytosine deaminase in the linker region of DHFR-TS. To create this plasmid two primers, a forward primer GGGAGATCTATGGCTTCGTACCCCGGCCATCAA (SEQ ID NO:10) and a reverse primer GGGGATCCTCAGTTAGCCTCCCCCATCTCCCG (SEQ ID NO:11) were used to PCR amplify, via standard conditions, the ganciclovir hypersensitive TK75 HSVTK allele (Black, et al. (1996) Proc. Natl Acad. Sci. USA 93:3525-3529). The forward primer contains a BglII site and the reverse primer a BamHI site. Following BamHI and BglII digestion of the ˜1130 bp PCR product, the TK allele was ligated into plasmid pDHFRm2m3-FLG-TS which was digested at the unique BamHI site in the FLAG epitope linker. The TK PCR primers were designed to join with pDHFRm2m3-FLG-TS to produce an in-frame insertion of TK between DHFR and TS in a plasmid called pDHFRm2m3-TK-TS, similar to previously described pDHFRm2m3-CD-TS plasmid (Fox, et al. (1999) supra). The trifunctional enzyme plasmid with TK was tested to confirm function of all three enzymes. […]

[5] = test system: mutants cps1, cps2, cps3, cps4; experiment: plaque formation in ganciclovir, cps mutants; assay type: cell-based, Toxoplasma gondii
mammalian CPSII = conditions: hamster CPSII; cited from earlier work

O=c1ccn([C@@H]2O[C@H](CO)[C@@H](O)[C@H]2O)c(=O)[nH]1 [uridine]
incorporation of [3H]-labeled pyrimidine into wild-type parasites (wild-type T. gondii): incorporated into wild-type parasites
uridine concentration that rescues cps1 and cps2 (normal plaque size) (cps1 and cps2 mutants; in vitro): 5 µM
rescue of growth rate / replication of cps1 and cps2 (cps1 and cps2 mutants): completely rescued
labeling of FUDR-1 mutant parasites with [3H]pyrimidine (FUDR-1 mutant parasites): not labeled
support of growth of cps1-1 or cps2-1 (cps1-1 and cps2-1 [1]; 5 μM uridine): insufficient to support any growth
rescue of replication (doublings) of cps1-1 and cps2-1 (cps1-1 and cps2-1 [1]): poor
uridine concentration giving slow restoration of growth (cps1-1 and cps2-1 [1]; cps1-1, cps2-1): > 400 µM
rescue of plaque formation of cps1-1 and cps2-1 (cps1-1 and cps2-1 [1]): quite poor

Cc1cn([C@H]2C[C@H](O)[C@@H](CO)O2)c(=O)[nH]c1=O [thymidine]
inhibition of parasite nucleoside phosphorylase activity [2]: approximately 90%
incorporation of [3H]-labeled pyrimidine into wild-type parasites (wild-type T. gondii): did not incorporate
rescue of growth rate / replication of cps1 and cps2 (cps1 and cps2 mutants): partially rescued
rescue of replication of cps1 and cps2 (cps1 and cps2 mutants): did not rescue replication
plaque formation of cps1-1 (cps1-1 and cps2-1 [1]; 1000 μM thymidine): not
effect on deoxyuridine-dependent growth of cps1-1 (cps1-1 and cps2-1 [1]; 1000 μM thymidine plus 250 μM deoxyuridine): did block
effect on UPRT or uracil dependent growth of cps1-1 (cps1-1 and cps2-1 [1]; 1000 μM thymidine plus 250 μM uracil): did not affect
rescue of replication (doublings) of cps1-1 and cps2-1 (cps1-1 and cps2-1 [1]): remained as a single non-replicated parasite
rescue of plaque formation of cps1-1 and cps2-1 (cps1-1 and cps2-1 [1]): no response was detected

Nc1nc(O)c2ncn(COC(CO)CO)c2n1 [ganciclovir]
sensitivity of cps1-1 and cps2-1 to ganciclovir (cps1-1 and cps2-1 [3]): loss of sensitivity
ganciclovir concentration in which parasites do not form plaques [4]: 0.5 μm
ganciclovir concentration at which ability to form plaques is lost [5]: 0.5 µM

O=c1ccn([C@H]2C[C@H](O)[C@@H](CO)O2)c(=O)[nH]1 [deoxyuridine]
incorporation of [3H]-labeled pyrimidine into wild-type parasites (wild-type T. gondii): incorporated into wild-type T. gondii
rescue of growth rate / replication of cps1 and cps2 (cps1 and cps2 mutants): completely rescued
labeling of FUDR-1 mutant parasites with [3H]pyrimidine (FUDR-1 mutant parasites): not labeled
plaque formation of cps1-1 (cps1-1 and cps2-1 [1]; 250 μM supplement): plaques well
rescue of replication (doublings) of cps1-1 and cps2-1 (cps1-1 and cps2-1 [1]): significant
rescue of plaque formation of cps1-1 and cps2-1 (cps1-1 and cps2-1 [1]): significant growth rescue

H. a. T456A: mammalian (hamster) CPSII with MAPK site mutation T456A
Effect on CPS or CPSII (mammalian CPSII): Abolishes MAPK activation

H. a. S1345A: hamster CPSII with regulatory domain serine to alanine mutation
Effect on CPS or CPSII (mammalian CPSII): Reduces PRPP activation

Cc1c[nH]c(=O)[nH]c1=O [thymine]
incorporation of [3H]-labeled pyrimidine into wild-type parasites (wild-type T. gondii): did not incorporate
rescue of growth rate / replication of cps1 and cps2 (cps1 and cps2 mutants): partially rescued
rescue of replication of cps1 and cps2 (cps1 and cps2 mutants): did not rescue replication
rescue of replication (doublings) of cps1-1 and cps2-1 (cps1-1 and cps2-1 [1]): remained as a single non-replicated parasite
rescue of plaque formation of cps1-1 and cps2-1 (cps1-1 and cps2-1 [1]): no response was detected
